# BigSolDB 2.1
compound,measurement,setting,value
COc1c(C(C)(C)C)cc([N+](=O)[O-])c(C)c1[N+](=O)[O-],solubility (mole fraction),"in DMAc, 278.15 K",0.121
same,solubility (mole fraction),"in DMAc, 283.15 K",0.14
same,solubility (mole fraction),"in DMAc, 288.15 K",0.162
same,solubility (mole fraction),"in DMAc, 293.15 K",0.189
same,solubility (mole fraction),"in DMAc, 298.15 K",0.221
same,solubility (mole fraction),"in DMAc, 303.15 K",0.258
same,solubility (mole fraction),"in DMAc, 308.15 K",0.3
same,solubility (mole fraction),"in DMAc, 313.15 K",0.347
same,solubility (mole fraction),"in DMAc, 318.15 K",0.4
same,solubility (mole fraction),"in DMF, 278.15 K",0.0875
same,solubility (mole fraction),"in DMF, 283.15 K",0.107
same,solubility (mole fraction),"in DMF, 288.15 K",0.127
same,solubility (mole fraction),"in DMF, 293.15 K",0.154
same,solubility (mole fraction),"in DMF, 298.15 K",0.183
same,solubility (mole fraction),"in DMF, 303.15 K",0.221
same,solubility (mole fraction),"in DMF, 308.15 K",0.263
same,solubility (mole fraction),"in DMF, 313.15 K",0.31
same,solubility (mole fraction),"in DMF, 318.15 K",0.372
same,solubility (mole fraction),"in THF, 278.15 K",0.157
same,solubility (mole fraction),"in THF, 283.15 K",0.177
same,solubility (mole fraction),"in THF, 288.15 K",0.203
same,solubility (mole fraction),"in THF, 293.15 K",0.231
same,solubility (mole fraction),"in THF, 298.15 K",0.264
same,solubility (mole fraction),"in THF, 303.15 K",0.302
same,solubility (mole fraction),"in THF, 308.15 K",0.342
same,solubility (mole fraction),"in THF, 313.15 K",0.391
same,solubility (mole fraction),"in THF, 318.15 K",0.446
same,solubility (mole fraction),"in acetonitrile, 278.15 K",0.0355
same,solubility (mole fraction),"in acetonitrile, 283.15 K",0.0456
same,solubility (mole fraction),"in acetonitrile, 288.15 K",0.0608
same,solubility (mole fraction),"in acetonitrile, 293.15 K",0.0819
same,solubility (mole fraction),"in acetonitrile, 298.15 K",0.111
same,solubility (mole fraction),"in acetonitrile, 303.15 K",0.146
same,solubility (mole fraction),"in acetonitrile, 308.15 K",0.189
same,solubility (mole fraction),"in acetonitrile, 313.15 K",0.25
same,solubility (mole fraction),"in acetonitrile, 318.15 K",0.33
same,solubility (mole fraction),"in ethanol, 278.15 K",0.00359
same,solubility (mole fraction),"in ethanol, 283.15 K",0.0046
same,solubility (mole fraction),"in ethanol, 288.15 K",0.00594
same,solubility (mole fraction),"in ethanol, 293.15 K",0.00791
same,solubility (mole fraction),"in ethanol, 298.15 K",0.00992
same,solubility (mole fraction),"in ethanol, 303.15 K",0.0131
same,solubility (mole fraction),"in ethanol, 308.15 K",0.0164
same,solubility (mole fraction),"in ethanol, 313.15 K",0.0215
same,solubility (mole fraction),"in ethanol, 318.15 K",0.0276
same,solubility (mole fraction),"in methanol, 278.15 K",0.00266
same,solubility (mole fraction),"in methanol, 283.15 K",0.00351
same,solubility (mole fraction),"in methanol, 288.15 K",0.00447
same,solubility (mole fraction),"in methanol, 293.15 K",0.00561
same,solubility (mole fraction),"in methanol, 298.15 K",0.00719
same,solubility (mole fraction),"in methanol, 303.15 K",0.00897
same,solubility (mole fraction),"in methanol, 308.15 K",0.0112
same,solubility (mole fraction),"in methanol, 313.15 K",0.0144
same,solubility (mole fraction),"in methanol, 318.15 K",0.018
same,solubility (mole fraction),"in n-butanol, 278.15 K",0.00491
same,solubility (mole fraction),"in n-butanol, 283.15 K",0.00673
same,solubility (mole fraction),"in n-butanol, 288.15 K",0.0088
same,solubility (mole fraction),"in n-butanol, 293.15 K",0.0111
same,solubility (mole fraction),"in n-butanol, 298.15 K",0.0143
same,solubility (mole fraction),"in n-butanol, 303.15 K",0.0192
same,solubility (mole fraction),"in n-butanol, 308.15 K",0.0241
same,solubility (mole fraction),"in n-butanol, 313.15 K",0.0308
same,solubility (mole fraction),"in n-butanol, 318.15 K",0.0405
same,solubility (mole fraction),"in n-propanol, 278.15 K",0.00367
same,solubility (mole fraction),"in n-propanol, 283.15 K",0.00463
same,solubility (mole fraction),"in n-propanol, 288.15 K",0.00591
same,solubility (mole fraction),"in n-propanol, 293.15 K",0.00789
same,solubility (mole fraction),"in n-propanol, 298.15 K",0.0105
same,solubility (mole fraction),"in n-propanol, 303.15 K",0.0137
same,solubility (mole fraction),"in n-propanol, 308.15 K",0.0182
same,solubility (mole fraction),"in n-propanol, 313.15 K",0.024
same,solubility (mole fraction),"in n-propanol, 318.15 K",0.0311
